From patent US20140288039A1, “LI[…] CHAIN TE[…] FOR ORAL […]” (Lipocine Inc., priority 2009, published 2014)

Key:
[1] = Solubility of testosterone esters in lipophilic additives (castor oil, oleic acid, glyceryl mono and di linoleate), HPLC; conditions: room temperature, equilibrium, compared to the Undecanoate (T11) ester, values only in FIGS. 1-3
[2] = background statement, cited from earlier work
[3] = single daily dose oral administration

CCCCCCCCCCCCCC(=O)O[C@H]1CC[C@H]2[C@@H]3CCC4=CC(=O)CC[C@]4(C)[C@H]3CC[C@]12C [Testosterone Tetradecoate (T14), Testosterone Tetradecoate]
solubility in lipophilic additives (in words) [1]: unexpectedly disproportionate lower solubility

CCCCCCCCCCCCC(=O)O[C@H]1CC[C@H]2[C@@H]3CCC4=CC(=O)CC[C@]4(C)[C@H]3CC[C@]12C [Testosterone Tridecoate (T13), Testosterone Tridecoate]
solubility in lipophilic additives (in words) [1]: unexpectedly disproportionate lower solubility

CCCCCCCCCCC(=O)O[C@H]1CC[C@H]2[C@@H]3CCC4=CC(=O)CC[C@]4(C)[C@H]3CC[C@]12C [Testosterone Undecanoate (T11), Testosterone Undecanoate]
percentage of patients in a group whose serum T remains in the hypogonadal range for a large proportion of the dosing period [2, 3]: > 60% | time serum T levels remain in the hypogonadal range (<300 ng/dL) in a 24-hour period [2, 3]: > 7 h

C[C@]12CCC(=O)C=C1CC[C@@H]1[C@@H]2CC[C@@]2(C)[C@H]1CC[C@]2(C)O [methyl testosterone]
reported adverse effects (in words) ([2]; oral use): liver damage including cholestasis, peliosis hepatitis, nodular regenerative hyperplasia, and primary hepatic tumors
